# Changes are numbered by the printed parent chain. Read-outs that look alike come from different tables or passages of the source. Non-standard residues stand in square brackets, D forms with d. Residues, ends and D or L forms follow the SMILES beside them. No end group written: not given here.
# T1: MAS (Homo sapiens, UniProt P04201)
# T1 construct: expressed in transfected cells
# T1 sequence (P04201 1-325): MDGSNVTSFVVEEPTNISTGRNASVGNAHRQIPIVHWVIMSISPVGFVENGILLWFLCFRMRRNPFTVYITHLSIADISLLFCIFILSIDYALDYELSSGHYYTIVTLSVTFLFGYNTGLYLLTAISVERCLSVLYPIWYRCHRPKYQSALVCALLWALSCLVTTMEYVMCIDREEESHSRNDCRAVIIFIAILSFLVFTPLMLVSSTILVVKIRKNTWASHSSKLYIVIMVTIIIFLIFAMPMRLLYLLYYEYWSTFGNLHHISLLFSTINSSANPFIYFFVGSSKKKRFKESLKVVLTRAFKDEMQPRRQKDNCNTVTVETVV
# T2: untagged WT MAS (Homo sapiens, UniProt P04201)
# T2 construct: expressed in transfected cells
# T2 sequence (P04201 1-325): T1 sequence (P04201 1-325)
# T3: MAS F112A mutant (Homo sapiens, UniProt P04201, F112A)
# T3 construct: expressed in transfected cells
# T3 sequence (P04201 1-325 F112A): T1 sequence (P04201 1-325) with F112A
# T4: MAS I191A mutant (Homo sapiens, UniProt P04201, I191A)
# T4 construct: expressed in transfected cells
# T4 sequence (P04201 1-325 I191A): T1 sequence (P04201 1-325) with I191A
# T5: MAS M244A mutant (Homo sapiens, UniProt P04201, M244A)
# T5 construct: expressed in transfected cells
# T5 sequence (P04201 1-325 M244A): T1 sequence (P04201 1-325) with M244A
# T6: MAS T270A mutant (Homo sapiens, UniProt P04201, T270A)
# T6 construct: expressed in transfected cells
# T6 sequence (P04201 1-325 T270A): T1 sequence (P04201 1-325) with T270A
# T7: myc-tagged wild-type human MAS receptor (human) (UniProt P04201)
# T7 sequence: T1 sequence (P04201 1-325)
# B1: [^DY^1] [^NMeF^3]-NPFF (peptide)
# peptide: YLFQPQRF
# HELM: PEPTIDE1{[dY].L.[meF].Q.P.Q.R.F.[am]}$$$$V2.0; N-terminus assumed
# SMILES: CC(C)C[C@H](NC(=O)[C@H](N)Cc1ccc(O)cc1)C(=O)N(C)[C@@H](Cc1ccccc1)C(=O)N[C@@H](CCC(N)=O)C(=O)N1CCC[C@H]1C(=O)N[C@@H](CCC(N)=O)C(=O)N[C@@H](CCCNC(=N)N)C(=O)N[C@@H](Cc1ccccc1)C(N)=O
# B2: [Sar^1]-Ang(1–7)-amide (peptide)
# peptide: GRVYIHP
# HELM: PEPTIDE1{[Sar].R.V.Y.I.H.P.[am]}$$$$V2.0; N-terminus assumed
# SMILES: CC[C@H](C)[C@H](NC(=O)[C@H](Cc1ccc(O)cc1)NC(=O)[C@@H](NC(=O)[C@H](CCCNC(=N)N)NC(=O)CNC)C(C)C)C(=O)N[C@@H](Cc1c[nH]cn1)C(=O)N1CCC[C@H]1C(N)=O
# Key:
# [1] = tested on: MAS; design: method as in ref [8] (a number printed in a supplementary file, which may have a reference list of its own: not looked up in the article's list); conditions: Bovine MAS; ref [8]; cited from earlier work
# [2] = molecular target: T1, MAS; assay: FLIPR calcium assay, induced myc-tagged WT MAS HEK293 stable cell line; assay type: cell-based; conditions: for EC50, Calcium assay / EC50: induced cells
# Method: The assay was performed using FLIPR Calcium 5 assay kit (Molecular Devices, Sunnyvale, CA). For calcium measurements, cells at a density of 125,000 cells/well in 100 µl medium were seeded onto a 96-well clear bottom black cell culture plate that was pre-coated with poly-L-lysine. In the calcium assays the cell density of 125,000 cells/well was consistently maintained to minimize variability between independent experiments. The cells were seeded in induction media to induce MAS expression or in complete media for negative controls. The plate was maintained in a cell culture incubator for 26–28 h. The cells were then serum starved for 2 h by replacing the medium with 100 µl of serum free DMEM. In the case of pre-treatment with pan-inhibitor of G protein signaling, BIM-46187, the cells were initially serum starved for 1 h by replacing the medium with 50 µl of serum free DMEM. After 1 h, 50 µl of BIM-46187 was added to the cells to a final concentration of 25 µM and treated for another 1 h. Following serum starvation, 100 µl of calcium sensitive dye along with 2x (2.5 mM final concentration) probenecid (Life Technologies, Grand Island, NY) was added to the cells. During this step, AR-inverse agonist or BIM-46187 was also added at desired concentrations to the calcium dye preparation in case of experiments where cells were pre-treated with these inhibitors. The cells were maintained for one hour in the cell culture incubator. Following this, the 96-well plate containing cells loaded with calcium dye and a U-bottom 96-well plate containing ligands at 5x the desired final concentration in D-PBS (1.47 mM KH2PO4, 138 mM NaCl, 2.67 mM KCl, 8.1 mM Na2HPO4, pH 7.3) were allowed to equilibrate for 15 min on a FlexStation 3 instrument (Molecular Devices, Sunnyvale, CA) at 37°C. The plates were further equilibrated on the instrument for 5 min with the lids removed from the plates. The instrument was programmed in FLEX mode to add ligands (50 µl at 5x concentration) to the cells and to monitor the fluorescence before and after adding the ligands. In re-stimulation and antagonism assays the instrument is programmed to add 35 µl of first ligand followed by addition of the second ligand (35 µl) after 10 min. […] Therefore, when using 5x ligand stock the maximum AR-agonist concentration that could be tested was 10 µM.
# In the calcium assays, the maximum response and minimum response values in relative fluorescence units (RFU) were extracted by subtracting the corresponding baseline value wherein baseline is defined as the average fluorescence of all time points before addition of ligand.
# (§1) The kinetic parameter t1/2 (time taken to reach half of the maximum response) was determined using SoftMax Pro software supplied with the FlexStation 3 instrument (Molecular Devices, Sunnyvale, CA).
# For re-stimulation assays, the data is expressed as the percentage of maximum agonist stimulation to allow for ready comparison between individual experiments. […] For all the assays, the EC50 and IC50 values were estimated by fitting the data to a three parameter dose response using GraphPad Prism software (GraphPad, La Jolla, CA).
# [3] = molecular target: T1, MAS; assay: HTRF IP1 assay, induced myc-tagged WT MAS HEK293 stable cell line; assay type: cell-based; conditions: WT MAS, induced cells
# Method: IP1 levels in the cells were measured using the IP-One Tb kit (Cisbio US, Bedford, MA). For the assay, cells were seeded onto a 384-well low volume white cell culture plate at a density of 25,000 cells/well in 20 µl of induction or complete medium. In the IP1 assays the cell density of 25,000 cells/well was consistently maintained to minimize variability between independent experiments. The cells were maintained in a cell culture incubator for 26–28 h. The cells were then serum starved for 2 h by replacing the medium with 7 µl of serum free DMEM/F-12. During this step, 7 µl of serum free DMEM/F-12 was also added to the wells to which IP1 standards would be subsequently added. […] The cells were then placed in the cell culture incubator for 4 h. Later, 3 µl each of d2-labeled IP1 and anti-IP1 cryptate Tb conjugated antibody diluted in lysis buffer was added sequentially to all the wells and the plate was incubated overnight in the dark at room temperature. Time-resolved ratiometric fluorescence emission measurements at 665 nm and 620 nm were taken after excitation at 343 nm on FlexStation 3 instrument.
# For the IP1 assay, a standard curve was generated using the 4-Parameter logistic equation fit of the HTRF readings of IP1 standards using the SoftMax Pro software. The IP1 concentrations in the experiments were extrapolated based on the standard curve parameters. […] For all the assays, the EC50 and IC50 values were estimated by fitting the data to a three parameter dose response using GraphPad Prism software (GraphPad, La Jolla, CA).
# [4] = molecular target: T1, MAS; assay: SRF-RE luciferase reporter assay (Gα12-dependent), induced WT MAS stable cell line; assay type: cell-based; conditions: induced cells
# Method: The luciferase assay was performed using pGL4 luciferase reporter vectors and Dual-Glo Luciferase Assay System (Promega, Madison, WI). For this assay, the inducible MAS stable cells were initially plated in a 10 cm plate and left overnight in a cell culture incubator. The following day the cells were transfected with 5 µg of pGL4.34 plasmid containing serum response factor response element (SRF-RE)-firefly luciferase reporter gene and 1 µg of pGL4.73 plasmid containing renilla luciferase (as a transfection efficiency control). […] After 8 h of transfection and induction, the cells were seeded onto a 96-well clear bottom black cell culture plate (pre-coated with poly-L-lysine) at a density of 125,000 cells/well in 100 µl of minimal medium (with reduced serum of 0.5%). The plate was maintained in a cell culture incubator for 18–20 h. At this point 50 µl of media in the cells was replaced with 50 µl of serum free media containing ligands at 2x the desired concentration and incubated for an additional 6 h. Finally, the luciferase activity in the cells was measured according the protocol provided by the manufacturer. The luminescence measurements (RLU) in the cells were obtained on FlexStation 3 instrument.
# For re-stimulation assays, the data is expressed as the percentage of maximum agonist stimulation to allow for ready comparison between individual experiments. […] In the luciferase assay, the luminescence measurements (RLU) are presented as a ratio of firefly to renilla luciferase activity. For all the assays, the EC50 and IC50 values were estimated by fitting the data to a three parameter dose response using GraphPad Prism software (GraphPad, La Jolla, CA).
# [5] = molecular target: T2, untagged WT MAS; assay: Calcium assay, untagged WT MAS inducible HEK293 stable cell line; assay type: cell-based; conditions: up to 250 µM
# Method: The assay was performed using FLIPR Calcium 5 assay kit (Molecular Devices, Sunnyvale, CA). For calcium measurements, cells at a density of 125,000 cells/well in 100 µl medium were seeded onto a 96-well clear bottom black cell culture plate that was pre-coated with poly-L-lysine. In the calcium assays the cell density of 125,000 cells/well was consistently maintained to minimize variability between independent experiments. The cells were seeded in induction media to induce MAS expression or in complete media for negative controls. The plate was maintained in a cell culture incubator for 26–28 h. The cells were then serum starved for 2 h by replacing the medium with 100 µl of serum free DMEM. In the case of pre-treatment with pan-inhibitor of G protein signaling, BIM-46187, the cells were initially serum starved for 1 h by replacing the medium with 50 µl of serum free DMEM. After 1 h, 50 µl of BIM-46187 was added to the cells to a final concentration of 25 µM and treated for another 1 h. Following serum starvation, 100 µl of calcium sensitive dye along with 2x (2.5 mM final concentration) probenecid (Life Technologies, Grand Island, NY) was added to the cells. During this step, AR-inverse agonist or BIM-46187 was also added at desired concentrations to the calcium dye preparation in case of experiments where cells were pre-treated with these inhibitors. The cells were maintained for one hour in the cell culture incubator. Following this, the 96-well plate containing cells loaded with calcium dye and a U-bottom 96-well plate containing ligands at 5x the desired final concentration in D-PBS (1.47 mM KH2PO4, 138 mM NaCl, 2.67 mM KCl, 8.1 mM Na2HPO4, pH 7.3) were allowed to equilibrate for 15 min on a FlexStation 3 instrument (Molecular Devices, Sunnyvale, CA) at 37°C. The plates were further equilibrated on the instrument for 5 min with the lids removed from the plates. The instrument was programmed in FLEX mode to add ligands (50 µl at 5x concentration) to the cells and to monitor the fluorescence before and after adding the ligands. […]
# [6] = tested on: MAS; design: method as in ref [2] (a number printed in a supplementary file, which may have a reference list of its own: not looked up in the article's list); conditions: Mouse MAS; ref [2]; cited from earlier work
# [7] = tested on: MAS; design: method as in ref [2] (a number printed in a supplementary file, which may have a reference list of its own: not looked up in the article's list); conditions: Mouse MAS; ref [2]; cited from earlier work; remark: listed apart in the source
# [8] = molecular target: T1, MAS; design: method as in ref [3] (a number printed in a supplementary file, which may have a reference list of its own: not looked up in the article's list); conditions: ref [3]; cited from earlier work
# [9] = molecular target: T3, MAS F112A mutant; assay: Calcium assay, F112A MAS mutant stable cell line; assay type: cell-based
# Method: (§2) The assay was performed using FLIPR Calcium 5 assay kit (Molecular Devices, Sunnyvale, CA). For calcium measurements, cells at a density of 125,000 cells/well in 100 µl medium were seeded onto a 96-well clear bottom black cell culture plate that was pre-coated with poly-L-lysine. In the calcium assays the cell density of 125,000 cells/well was consistently maintained to minimize variability between independent experiments. The cells were seeded in induction media to induce MAS expression or in complete media for negative controls. The plate was maintained in a cell culture incubator for 26–28 h. The cells were then serum starved for 2 h by replacing the medium with 100 µl of serum free DMEM. In the case of pre-treatment with pan-inhibitor of G protein signaling, BIM-46187, the cells were initially serum starved for 1 h by replacing the medium with 50 µl of serum free DMEM. After 1 h, 50 µl of BIM-46187 was added to the cells to a final concentration of 25 µM and treated for another 1 h. Following serum starvation, 100 µl of calcium sensitive dye along with 2x (2.5 mM final concentration) probenecid (Life Technologies, Grand Island, NY) was added to the cells. During this step, AR-inverse agonist or BIM-46187 was also added at desired concentrations to the calcium dye preparation in case of experiments where cells were pre-treated with these inhibitors. The cells were maintained for one hour in the cell culture incubator. […] The instrument was programmed in FLEX mode to add ligands (50 µl at 5x concentration) to the cells and to monitor the fluorescence before and after adding the ligands. […]
# as §1
# (§3) For re-stimulation assays, the data is expressed as the percentage of maximum agonist stimulation to allow for ready comparison between individual experiments. […]
# [10] = molecular target: T4, MAS I191A mutant; assay: Calcium assay, I191A MAS mutant stable cell line; assay type: cell-based
# Method: as §2, §1, §3
# [11] = molecular target: T5, MAS M244A mutant; assay: Calcium assay, M244A MAS mutant stable cell line; assay type: cell-based
# Method: as §2, §1, §3
# [12] = molecular target: T6, MAS T270A mutant; assay: Calcium assay, T270A MAS mutant stable cell line; assay type: cell-based
# Method: as §2, §1, §3
# [13] = tested on: MAS; conditions: Mouse MAS, cited from earlier work
# [14] = tested on: MAS; design: method as in ref [12] (a number printed in a supplementary file, which may have a reference list of its own: not looked up in the article's list); conditions: Rat MAS; ref [12]; read-out: EC50 (Calcium assay); cited from earlier work
# [15] = molecular target: T7, myc-tagged wild-type human MAS receptor (human)
# [16] = molecular target: T1, MAS; design: method as in ref [10,11] (a number printed in a supplementary file, which may have a reference list of its own: not looked up in the article's list); conditions: ref [10,11], read-out: EC50 (Calcium assay); cited from earlier work
# [17] = molecular target: T7, myc-tagged wild-type human MAS receptor (human); remark: listed apart in the source
# [18] = WT MAS, t1/2 at 1000 µM (1 mM) ligand concentration
# [19] = WT MAS, t1/2 at 100 µM ligand concentration
molecule,measurement,setting,value
CCNC(=O)NS(=O)(=O)c1sc(CC(C)C)cc1-c1ccc(Cn2c(-c3ccccc3)nc(OC)c2C=O)cc1 [AVE 0991],Remarks: Ang(1-7)-like effects,[1],Mimics Ang(1-7) effects
"CC[C@H](C)[C@H](NC(=O)[C@H](Cc1ccc(O)cc1)NC(=O)[C@@H](NC(=O)[C@H](CCCNC(=N)N)NC(=O)[C@@H](N)CC(=O)O)C(C)C)C(=O)N[C@@H](Cc1c[nH]cn1)C(=O)N1CCC[C@H]1C(=O)O [Ang(1–7), angiotensin (1–7)]","EC50, Calcium assay",[2]; WT MAS,cbd
same,"t1/2, Calcium assay",[2]; [18],11.8 ± 0.6 s
same,"EC50, IP1 assay",[3],cbd
same,"EC50, Luciferase assay",[4],cbd
same,Calcium response,[5],no response
same,Type (Arachidonic acid release assay),[6],Endogenous agonist
same,Effect in aortic rings,[7],Vasodilator effect in aortic rings
CC[C@H](C)[C@H](NC(=O)[C@H](Cc1ccc(O)cc1)NC(=O)[C@@H](NC(=O)[C@H](CCCNC(=N)N)NC(=O)[C@@H](N)CC(=O)O)C(C)C)C(=O)N[C@@H](Cc1c[nH]cn1)C(=O)N1CCC[C@H]1C(N)=O [Ang(1–7)-amide],"EC50, Calcium assay",[2]; WT MAS,cbd
same,"t1/2, Calcium assay",[2]; [18],11.4 ± 1.0 s
"CC[C@H](C)[C@H](NC(=O)[C@H](Cc1ccc(O)cc1)NC(=O)[C@@H](N)C(C)C)C(=O)N[C@@H](Cc1cnc[nH]1)C(=O)N1CCC[C@H]1C(=O)N[C@@H](Cc1ccccc1)C(=O)O [AngIV / Ang(3–8), Angiotensin IV]","EC50, Calcium assay",[2]; WT MAS,cbd
same,"t1/2, Calcium assay",[2]; [18],10.4 ± 0.3 s
same,Type (Arachidonic acid release assay),[8],Agonist
CC[C@H](C)[C@H](NC(=O)[C@H](Cc1ccc(O)cc1)NC(=O)[C@@H](N)C(C)C)C(=O)N[C@@H](Cc1c[nH]cn1)C(=O)N1CCC[C@H]1C(=O)N[C@@H](Cc1ccccc1)C(N)=O [AngIV-amide],EC50,[2]; WT MAS,24.4 ± 1.5 µM
same,"t1/2, Calcium assay",[2]; [19],13.7 ± 0.9 s
N[C@@H](CSSC[C@H](N)C(=O)N1CCn2cc(-c3ccccc3)nc2[C@@H]1CC1CCCCC1)C(=O)N1CCn2cc(-c3ccccc3)nc2[C@@H]1CC1CCCCC1 [BIM-46187],Effect of pre-treatment on AR-agonist calcium signal,[2]; 25 µM pre-treatment,complete loss of signal
"CC(C)C[C@H](NC(=O)[C@@H](N)Cc1ccccc1)C(=O)N[C@@H](Cc1ccccc1)C(=O)N[C@@H](CCC(N)=O)C(=O)N1CCC[C@H]1C(=O)N[C@@H](CCC(N)=O)C(=O)N[C@@H](CCCN=C(N)N)C(=O)N[C@@H](Cc1ccccc1)C(N)=O [NPFF, Neuropeptide FF]","t1/2 (time taken to reach half of the maximal calcium response), Calcium assay",[2]; WT MAS,8.5 ± 0.3 s
same,"t1/2, Calcium assay",[9],7.7±2.9^#∧ s
same,"t1/2, Calcium assay",[10],9.0 ± 0.4 s
same,"t1/2, Calcium assay",[11],cbd
same,"t1/2, Calcium assay",[12],9.3±2.0^#∧ s
CC[C@H](C)[C@H](NC(=O)[C@H](Cc1ccc(O)cc1)NC(=O)[C@@H](NC(=O)[C@H](CCCN=C(N)N)NC(=O)CNC)C(C)C)C(=O)N[C@@H](Cc1c[nH]cn1)C(=O)N1CCC[C@H]1C(N)=O [[Sar^1]-Ang(1–7)-amide],EC50,[2]; WT MAS,193 ± 59 µM
same,"t1/2, Calcium assay",[2]; [19],18.2 ± 1.2 s
CC(C)C[C@H](NC(=O)[C@H](N)Cc1ccc(O)cc1)C(=O)N(C)[C@@H](Cc1ccccc1)C(=O)N[C@@H](CCC(N)=O)C(=O)N1CCC[C@H]1C(=O)N[C@@H](CCC(N)=O)C(=O)N[C@@H](CCCN=C(N)N)C(=O)N[C@@H](Cc1ccccc1)C(N)=O [[^DY^1] [^NMeF^3]-NPFF] (HELM PEPTIDE1{[dY].L.[meF].Q.P.Q.R.F.[am]}$$$$V2.0),EC50,[2]; WT MAS,2.4 ± 0.3 µM
"A779: Ang(1–7) analog, sequence DRVYIH^DA (DRVYIH[dA])","EC50, Calcium assay",[2]; WT MAS,cbd
same,"t1/2, Calcium assay",[2]; [19],cbd ^#
same,Remarks: effect on Ang(1-7) response,"[13]; ref [2,5]",Inhibits Ang(1-7) response
"MBP7: peptide agonist, sequence KAQLRRLS",EC50,[14],36.4 µM
NPFF-C (peptide),"EC50, calcium assay, induced WT MAS stable HEK293 cells",[15],3 µM
"P33 / CGEN-857: peptide agonist, sequence SMCHRWSRAVLFPAAHRP",EC50,[16],1 µM
"P61 / CGEN-856: peptide agonist, sequence FLGYCIYLNRKRRGDPAFKRRLRD",EC50,[16],0.57 µM
VYIHP [Ang(3–7)] [listing 1 of 2 here],"EC50, Calcium assay",[2]; WT MAS,cbd
VYIHP [Ang(3–7)] [listing 2 of 2 here],"t1/2, Calcium assay",[2]; [18],15.0 ± 0.5 s
YLFQPQRF-NH2 [[Y^1]-NPFF],EC50,[2]; WT MAS,12.2 ± 2 µM
[^DPro^7]-Ang(1-7),Remarks: effect on Ang(1-7) response,[13]; ref [6],Inhibits Ang(1-7) response
B1,"EC50, calcium assay, induced WT MAS stable HEK293 cells",[15],2.4 µM
B2,"EC50, calcium assay, induced WT MAS stable HEK293 cells",[17],193 µM
YLFQPQRF-NH2 [[Y^1]-NPFF],"EC50, calcium assay, induced WT MAS stable HEK293 cells",[15],12.2 µM
RVYIHPF [AngIII],"EC50, calcium assay, induced WT MAS stable HEK293 cells (response incompletely inhibited by AR-inverse agonist; non-specific response in un-induced cells at 1 mM)",[17],30.7 µM
VYIHPF-NH2 [AngIV-amide],"EC50, calcium assay, induced WT MAS stable HEK293 cells (response incompletely inhibited by AR-inverse agonist; non-specific response in un-induced cells at 1 mM)",[17],24.4 µM
